Measured values as given in patent publication US12727600B2, “Staurosporine⋅emamectin benzoate suspending agent and preparation method and application thereof” (PLANT PROTECTION RESEARCH INSTITUTE OF GUANGDONG ACADEMY OF …, priority 2020, dated 2026).
Read-outs that look alike come from different tables or passages of the source.

Tested on: second instar larvae of Spodoptera exigua
Assay: Indoor toxicity by Potter spray method; co-toxicity coefficient method of Sun Y. P.
Format: in vivo
Conditions: median lethal concentration
Procedure: The method for determining the indoor toxicity of the pesticides involved in the present invention to the second instar larvae of Spodoptera exigua is as follows:
The test method is the Potter spray method: a Potter spray tower is used to spray the vegetable leaves on both sides with 1 mL of the amount of the pesticides treating the leaf on each side, and the sedimentation is performed for 30 seconds. There are 3 replicates for each treatment for 30 larvae (2nd instar larvae of Spodoptera exigua), and a treatment with the clean water is used as the control. The petri dish after sprayed is placed in a constant-temperature incubator (temperature being 25° C., relative humidity being 85%). The death of the testing pests is investigated and recorded after treatment for 24, 48, and 72 hours. During the treatment, the petri dish is kept moist, and fresh Cantonese cabbage leaves are added timely as pest's food.
The formula (1) is used to calculate the mortality of pests, the Abbott formula is used to calculate the corrected mortality, and EXCEL is used to analyze the virulence regression results. Formula (2) is the calculation formula of Abbott. Mortality (%)=Number of dead insects/Number of testing worms before experiment*100 (1) […]

In the case of Emamectin benzoate [0:10], the LC50 is reported as 0.14 µg/mL.

Work on `CN[C@@H]1C[C@H]2O[C@@](C)([C@@H]1OC)n1c3ccccc3c3c4c(c5c6ccccc6n2c5c31)C(=O)NC4` [10:0, Staurosporine] yielded an LC50 (Spodoptera exigua, mass ratio Staurosporine:Emamectin benzoate, read-out: LC50) of 40.3 µg/mL.
